In US20150183743A1, “COMPOUND AND USE OF COMPOUND TO PREPARE A RADIOLABELLED COMPOUND” (STICHTING VU-VUMC, priority 2012, published 2015):
Where a name gives a salt, the structure may show the parent alone.

Assays:
[1] = target: T1, ifenprodil binding site of NR2B subunit containing NMDA receptors (Rattus norvegicus, UniProt P35439+Q00960); assay: Competition binding assay against [3H]ifenprodil on rat forebrain membranes; details: displacement of 5 nM [3H]ifenprodil; mean±SEM of 2-6 determinations in triplicate
T1 construct: 400 μl of the membrane suspension, containing a total amount of 2.5 mg original wet weight of tissue; from tissue; host or cells: rat forebrain membranes
T1 sequence (Q00960 27-1482, other chains not shown): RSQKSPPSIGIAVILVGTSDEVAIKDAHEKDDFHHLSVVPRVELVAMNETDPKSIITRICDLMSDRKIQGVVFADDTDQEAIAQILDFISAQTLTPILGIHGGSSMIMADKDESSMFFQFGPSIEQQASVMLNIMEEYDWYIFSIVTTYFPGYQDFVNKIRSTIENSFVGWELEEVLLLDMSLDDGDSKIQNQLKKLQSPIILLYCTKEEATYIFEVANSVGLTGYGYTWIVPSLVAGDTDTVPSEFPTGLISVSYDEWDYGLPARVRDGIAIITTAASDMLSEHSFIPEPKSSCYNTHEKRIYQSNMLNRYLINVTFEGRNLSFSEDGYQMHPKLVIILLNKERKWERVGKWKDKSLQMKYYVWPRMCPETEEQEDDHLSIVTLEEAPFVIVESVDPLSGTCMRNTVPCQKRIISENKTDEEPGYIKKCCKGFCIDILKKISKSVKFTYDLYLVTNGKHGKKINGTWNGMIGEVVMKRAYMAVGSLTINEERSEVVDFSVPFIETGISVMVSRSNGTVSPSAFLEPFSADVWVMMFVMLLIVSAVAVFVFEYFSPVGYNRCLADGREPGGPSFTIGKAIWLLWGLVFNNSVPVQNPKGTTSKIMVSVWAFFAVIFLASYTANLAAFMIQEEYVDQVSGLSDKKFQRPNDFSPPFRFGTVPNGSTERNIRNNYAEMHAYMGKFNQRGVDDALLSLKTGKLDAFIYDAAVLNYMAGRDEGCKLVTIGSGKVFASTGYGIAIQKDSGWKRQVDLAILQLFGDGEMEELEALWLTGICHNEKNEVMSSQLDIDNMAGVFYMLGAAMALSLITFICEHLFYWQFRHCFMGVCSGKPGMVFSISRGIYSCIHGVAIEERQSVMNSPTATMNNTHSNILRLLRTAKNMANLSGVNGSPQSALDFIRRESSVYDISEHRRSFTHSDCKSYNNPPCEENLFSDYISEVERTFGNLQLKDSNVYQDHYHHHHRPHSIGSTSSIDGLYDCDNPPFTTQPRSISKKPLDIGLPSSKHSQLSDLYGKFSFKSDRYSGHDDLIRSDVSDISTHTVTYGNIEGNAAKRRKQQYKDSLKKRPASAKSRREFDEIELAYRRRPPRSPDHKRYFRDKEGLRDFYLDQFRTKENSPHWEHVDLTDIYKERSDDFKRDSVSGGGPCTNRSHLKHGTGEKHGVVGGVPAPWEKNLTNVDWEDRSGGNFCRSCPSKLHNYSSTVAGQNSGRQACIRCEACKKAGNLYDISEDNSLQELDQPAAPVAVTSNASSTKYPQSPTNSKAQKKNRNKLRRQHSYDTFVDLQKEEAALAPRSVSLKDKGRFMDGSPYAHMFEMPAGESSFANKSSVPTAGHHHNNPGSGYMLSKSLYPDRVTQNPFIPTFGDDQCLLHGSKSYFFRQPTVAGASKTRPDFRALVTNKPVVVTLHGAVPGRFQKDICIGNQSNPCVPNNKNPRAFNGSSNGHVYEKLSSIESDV
Experimental: Male Wistar rats (180-200 g) were killed by decapitation. The forebrains were rapidly removed and homogenized using a DUALL tissue homogenizer (10 strokes, 2000 rpm), in a 10-fold excess (v/w) of ice-cold 0.25 M sucrose. The nuclei and cell debris were removed by centrifugation (10 min×400×g), in a Beckman refrigerated ultracentrifuge (rotor 60Ti). The resulting pellet was rehomogenized in 5 vol 0.25 sucrose and recentrifuged. The combined supernatants were diluted in Tris-acetate buffer (50 mM, pH 7.4) to a final dilution of 40 v/w, and centrifuged for 30 min×200,000×g, in order to obtain membranes from the cell surface, mitochondrial, and microsomal fractions. The pellet was resuspended in 20 volumes of Tris-HCl+0.01% Triton buffer (pH 7.4), kept at 37° C. for 10 min, and recentrifuged. The final pellet was suspended in Tris-HCl buffer (dilution 5, pH 7.4), and stored at −80° C. in 5 ml aliquots. On the day of each experiment, membranes were thawed to room temperature and washed twice by centrifugation (30 min×200,000×g). After the final centrifugation, pellets were suspended in 80 volumes (v/w) of 50 mM Tris-HCl buffer (pH 7.4).
Competition binding experiments were carried out on ice, in a final volume of 500 μl assay buffer (50 mM Tris-HCl, pH 7.4), containing 5 μM GBR 12909 to block […] binding. The incubation mixture was composed of 400 μl of the membrane suspension, containing a total amount of 2.5 mg original wet weight of tissue, 50 μl of [^3H]ifenprodil, and 5 μl of unlabelled drug solution (final DMSO concentration: 1%). Nonspecific binding was determined in the presence of 10 μM Ro 25-6981. Incubations were terminated after 2 hr by filtration through 0.3% PEI-embedded Whatman GF/B filters, using a 48-well Brandel harvester. The filters were washed three times with 3 ml of ice cold Tris-HCl buffer (pH 7.4), and radioactivity was determined by liquid scintillation spectrometry in 5 ml of Optiphase-HiSafe 3, at an efficiency of 40%.
Ki values were determined by nonlinear regression analysis using the equation: log EC50=log [10̂log Ki*(1+RadioligandNM/HotKdNM)], (GraphPad Software Inc., San Diego, Calif.).

[2] = Biodistribution of [11C]HC-242 in anaesthetized mice; format: in vivo, B6C3F1/J mice
Experimental: Animals were anaesthetized with a 1:2:1 mixture of ffm [fentanyl/fluanisone (Hypnorm™; Vetapharma, Leeds, UK), sterile water, midazolam (Dormicum™; Actavis, Harnarfjordur, Iceland)]. The anaesthetic was administered intraperitoneally (11 ml/kg), 5 min prior to radiotracer administration. […] Following the injections, mice were killed by cervical dislocation at 5, 15, 30, or 60 min (n=4/time point). At each time point, blood was obtained by heart punctures and selected organs, including the heart, liver, kidneys, lungs and brain were removed. The brain was further dissected into frontal cortex, olfactory tubercle, striatum, cerebral cortex (bregma 1.70-0.02 mm), entorhinal cortex, hippocampus, hypothalamus, cerebellum, and pons/medulla oblongata. All organs and brain areas were weighed, and recovered radioactivity was determined in a 1282 Compugamma CS (LKB Wallac, Turku, Finland), using 5×10 μl aliquots of the injected formulation as standard. Results are expressed as the differential absorption ratio (DAR): (cpm recovered/g tissue)/(cpm injected/g body weight). Two-way repeated measures ANOVA, followed by Fisher's LSD post-hoc comparisons, was used for analysis of radiotracer uptake in different brain regions (or organs), at different time points.

[3] = target: T2, NR2B site of NMDA receptors (Mus musculus, UniProt P35438+Q01097); assay: In vitro autoradiography of [11C]HC-242 on mouse brain sections (non-specific: 1 μM Ro25-6981); format: binding, B6C3F1/J mice
T2 construct: from tissue; host or cells: mouse brain (sections in vitro; whole brain in vivo)
T2 sequence (Q01097 27-1482, other chains not shown): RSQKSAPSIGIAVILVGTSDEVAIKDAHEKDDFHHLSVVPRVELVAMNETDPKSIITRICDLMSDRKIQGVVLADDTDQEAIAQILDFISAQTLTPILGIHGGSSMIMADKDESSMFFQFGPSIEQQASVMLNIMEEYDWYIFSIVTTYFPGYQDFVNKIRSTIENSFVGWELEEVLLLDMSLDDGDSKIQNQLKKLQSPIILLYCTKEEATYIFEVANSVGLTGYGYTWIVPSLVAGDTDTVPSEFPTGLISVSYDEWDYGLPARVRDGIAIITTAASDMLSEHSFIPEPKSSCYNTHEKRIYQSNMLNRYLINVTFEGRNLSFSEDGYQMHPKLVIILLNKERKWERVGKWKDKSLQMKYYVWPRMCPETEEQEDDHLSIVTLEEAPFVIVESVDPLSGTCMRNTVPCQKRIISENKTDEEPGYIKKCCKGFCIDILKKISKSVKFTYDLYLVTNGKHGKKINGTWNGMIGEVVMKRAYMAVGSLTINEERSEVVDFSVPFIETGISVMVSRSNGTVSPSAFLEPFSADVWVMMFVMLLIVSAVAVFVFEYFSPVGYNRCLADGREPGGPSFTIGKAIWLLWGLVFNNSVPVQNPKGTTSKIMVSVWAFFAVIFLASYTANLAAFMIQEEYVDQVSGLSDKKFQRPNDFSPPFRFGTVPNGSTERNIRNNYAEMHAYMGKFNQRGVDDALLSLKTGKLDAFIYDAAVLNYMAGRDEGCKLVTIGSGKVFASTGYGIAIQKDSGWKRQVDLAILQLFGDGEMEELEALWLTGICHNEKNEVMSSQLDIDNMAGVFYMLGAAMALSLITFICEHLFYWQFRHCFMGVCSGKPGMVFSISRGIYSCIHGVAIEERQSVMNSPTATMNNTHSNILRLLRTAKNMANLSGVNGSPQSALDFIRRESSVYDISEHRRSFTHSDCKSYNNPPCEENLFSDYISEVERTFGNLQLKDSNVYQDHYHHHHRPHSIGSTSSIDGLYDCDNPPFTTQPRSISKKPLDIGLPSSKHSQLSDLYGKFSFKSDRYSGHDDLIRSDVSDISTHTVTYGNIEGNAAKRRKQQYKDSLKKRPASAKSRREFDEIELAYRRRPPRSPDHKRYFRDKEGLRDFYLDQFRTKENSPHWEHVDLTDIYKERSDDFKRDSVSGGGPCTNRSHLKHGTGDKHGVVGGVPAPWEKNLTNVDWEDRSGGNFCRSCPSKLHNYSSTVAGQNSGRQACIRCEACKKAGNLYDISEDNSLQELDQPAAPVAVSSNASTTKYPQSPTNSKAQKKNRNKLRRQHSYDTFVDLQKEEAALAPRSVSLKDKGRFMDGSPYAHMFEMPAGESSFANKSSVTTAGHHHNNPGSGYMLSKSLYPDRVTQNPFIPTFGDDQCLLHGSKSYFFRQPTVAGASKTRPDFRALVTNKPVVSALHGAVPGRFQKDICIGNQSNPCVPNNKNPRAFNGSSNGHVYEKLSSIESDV
Experimental: 20 μm thick coronal brain sections were thawed from −20° C. to room temperature, pre-washed 2×10 min in assay buffer (50 mM Tris-HCl, pH 7.4), and dried. […] To determine non-specific binding, a series of immediately adjacent brain sections was incubated in the same buffer, in the presence of 1 μM Ro25-6981. Incubations were terminated by 1 min washing into ice-cold assay buffer (pH 7.4), followed by a rapid rinse in ice-cold demi water. The sections were then air dried and opposed overnight to Kodak BioMax MR-1 film, which was developed in Kodak D19 developer and fixed with Kodak rapid fixer (Sigma-Aldrich, Zwijndrecht, the Netherlands). […] Specific binding was quantified following the subtraction of […] binding images.

[4] = target: T2, NR2B site of NMDA receptors; assay: Blocking of [11C]HC-242 brain uptake by Ro25-6981 in anaesthetized mice (ex vivo autoradiography); set-up: species or system B6C3F1/J mice; details: for mean % change: blocked (Ro25-6981) vs unblocked
Experimental: 15 min after radiotracer injection, mice were killed by cervical dislocation, and the brains were removed, frozen in liquid nitrogen and processed for quantitative autoradiography. 20 μm coronal brain sections from control and Ro25-6981 treated mice were obtained at −21° C. in a Leica CM3050S cryostat (Leica Microsystems, Rijswijk, the Netherlands), and were immediately opposed to phosphor storage screens. The screens were read in a Storm™ 860 Phosphorimager on the following day, and the images obtained were analyzed using ImageQuant TL 8.1 software (GE Healthcare Europe GmbH, Diegem, Belgium). A series of immediately adjacent brain sections were opposed to Kodak Biomax MR-1 film, which was developed after overnight exposure, to obtain high resolution images. […] Analysis of radiotracer uptake in control and blocked mice across different brain regions was performed using two-way ANOVA.

[5] = Determination of Log Doct,7.4; format: physicochemical; details: 1-octanol / 0.2M phosphate buffer pH 7.4, room temperature, triplicate
Experimental: The distribution of the radio labelled compounds between 1-octanol and 0.2M phosphate buffer (pH=7.4) was measured in triplicate at room temperature. Briefly, 1 mL of a 20 MBq/mL solution of the radio labelled compound in 0.2M phosphate buffer (pH=7.4) was vigorously mixed with 1 mL of 1-octanol for 1 min at room temperature using a vortex. After a settling period of 30 min, five samples of 100 μL were taken from both layers. For determining recovery, 5 samples of 100 μL were taken from the 20 MBq/mL solution. All samples were counted for radioactivity. The Log Doct,7.4 value was calculated according to Log Doct,7.4=^10Log(Aoct/Abuffer), where Aoct and Abuffer represent the average radioactivity counted of the 5 1-octanol and 5 buffer samples, respectively.

Structure (SMILES): COc1cc(F)ccc1-c1cncc(CNCC2CC2)c1 [Example 2, 1-cyclopropyl-N-((5-(4-fluoro-2-methoxyphenyl)pyridin-3-yl)methyl)methanamine dihydrochloride]
- Ki [1]: 8.7 ± 1.2 nM

Structure (SMILES): COc1cc(F)ccc1-c1cccc(CNCC2CC2)c1 [Example 4, 1-cyclopropyl-N-((4′-fluoro-2′-methoxy-[1,1′-biphenyl]-3-yl)methyl)methanamine hydrochloride]
- Ki [1]: 67.7 ± 8.1 nM

Structure (SMILES): Oc1cc(F)ccc1-c1cncc(CNC2CCCC2)c1 [Example 5, 2-(5-((cyclopentylamino)methyl)pyridin-3-yl)-5-fluorophenol]
- Ki [1]: 1300 ± 600 nM

Structure (SMILES): FCOc1cc(F)ccc1-c1cncc(CNC2CCCC2)c1 [Example 6, N-((5-(4-fluoro-2-(fluoromethoxy)phenyl)pyridin-3-yl)methyl)cyclopentanamine dihydrochloride]
- Ki [1]: 15.4 ± 1.3 nM

Structure (SMILES): FCCOc1cc(F)ccc1-c1cncc(CNC2CCCC2)c1 [Example 7, N-((5-(4-fluoro-2-(2-fluoroethoxyl)phenyl)pyridin-3-yl)methyl)cyclopentanamine dihydrochloride]
- Ki [1]: 156 ± 21.8 nM

Structure (SMILES): Fc1ccc(-c2cncc(CNC3CCCC3)c2)cc1 [Example 10, N-((5-(4-fluorophenyl)pyridin-3-yl)methyl)cyclopentanamine dihydrochloride]
- Ki [1]: 3.3 ± 1.9 nM

Structure (SMILES): Fc1ccc(-c2cccc(CNC3CCCC3)c2)cc1 [Example 11, N-((4′-fluoro-[1,1′-biphenyl]-3-yl)methyl)cyclopentanamine hydrochloride]
- Ki [1]: 13.1 ± 1.8 nM

Structure (SMILES): Fc1ccc(-c2cncc(CNCC3CC3)c2)cc1 [Example 12, 1-cyclopropyl-N-((5-(4-fluorophenyl)pyridin-3-yl)methyl)methanamine dihydrochloride]
- Ki [1]: 2.9 ± 0.3 nM

Structure (SMILES): [11CH3]Oc1cc(F)ccc1-c1cncc(CNC2CCCC2)c1 [[^11C]HC-242, N-((5-(4-fluoro-2-^11C-methoxyphenyl)pyridin-3-yl)methyl)cyclopentanamine]
- DAR ([2]; blood, 5 min): 0.04±0.01
- DAR ([2]; cerebellum, 15 min): 0.14±0.01
- DAR ([2]; cerebral cortex, 15 min): 0.25±0.03
- DAR ([2]; entorhinal cortex, 15 min): 0.62±0.22
- DAR ([2]; frontal cortex, 15 min): 0.26±0.02
- DAR ([2]; heart, 5 min): 0.19±0.04
- DAR ([2]; hippocampus, 15 min): 0.33±0.03
- DAR ([2]; liver, 5 min): 0.15±0.05
- DAR ([2]; pons/medulla oblongata, 15 min): 0.14±0.02
- DAR ([2]; striatum, 15 min): 0.24±0.03
- mean percentage of specific binding ([3]; across all brain regions analyzed): 24.0±3.5%
- Specific labelling ([3]; cerebral cortex, hippocampus, olfactory tubercle, striatum): high
- percentage of specific binding ([3]; olfactory tubercle): 39.6±10.4%
- Specific labelling ([3]; subthalamic brain regions): absent
- Specific labelling ([3]; thalamus): low
- percentage of specific binding ([3]; thalamus): 3.3±2.1%
- mean % change ([4]; Experiment No 1, [11C]HC-242 23.7 μM at t0): −22.5%
- mean % change ([4]; Experiment No 2, [11C]HC-242 2.6 μM at t0): −21.9%
- mean % change ([4]; Experiment No 3, [11C]HC-242 14.6 μM at t0): 33.3%
- mean decrease in radioactivity uptake induced by Ro25-6981 ([4]; Ro25-6981 10.0 mg/kg i.p. pretreatment, across all brain regions, pairs showing decrease): 22.3±1.9%
- mean increase in radioactivity uptake induced by Ro25-6981 ([4]; Ro25-6981 10.0 mg/kg i.p. pretreatment, across all brain regions, pairs showing increase): 29.4±4.2%
- logD [5]: 2.14 ± 0.02
